# Data reported in patent publication US7115664B2, “Peptidomimetic ligands for cellular receptors and ion channels” (Sepracor Inc., priority 2000, dated 2006).
# Assays:
# [1] = target: potassium channel [KA], [KV] or [SKCa]; experiment: Potassium channel receptor binding; settings: read-out: K** (IC50)
# Experimental: (§1) The opioid (μ) receptor binding capabilities of compounds described herein were determined according to the procedures outlined by Wang et al. (FEBS Letters 1994, 338, 217). The sodium channel receptor binding capabilities of compounds described herein were determined according to the procedures outlined by Catterall et al. (J. Biol. Chem. 1981, 256, 8922). The calcium channel receptor binding capabilities of compounds described herein were determined according to the procedures outlined by Gould et al. (Proc. Natl. Acad. Sci. USA 1982, 79, 3656), Ehlert et al. (Life Sci. 1982, 30, 2191), Reynolds et al. (J. Pharmacol. Exp. Ther. 1986, 237, 731), Moresco et al. (Neurobiology of Aging 1990, II, 433) and Schoemaker et al. (Eur. J. Pharmacol. 1985, III, 273). The potassium channel receptor binding capabilities of compounds described herein were determined according to the procedures outlined by Taylor et al. (J. Biol. Chem. 1984, 259, 13957), Rehm et al. (Proc. Natl. Acad. Sci. USA 1988, 85, 4919), Vasquez et al. (J. Biol. Chem. 1990, 265, 15564) and Mourre et al. (Brain Research 1986, 382, 239).
# [2] = target: calcium channel (type N) (Rattus norvegicus, UniProt Q02294); experiment: Calcium channel receptor binding, type N; settings: read-out: Ca (type N) (IC50)
# Experimental: as §1
# [3] = target: opioid (μ) receptor (Homo sapiens, UniProt P35372); experiment: Opioid (μ) receptor binding
# Source text: Another assay useful in the present invention concerns determining the ability of a ligand to bind to a biological receptor utilizing a technique well known in the art referred to as a radioligand binding assay. This assay accurately determines the specific binding of a radioligand to a targeted receptor through the delineation of its total and nonspecific binding components. Total binding is defined as the amount of radioligand that remains following the rapid separation of the radioligand bound in a receptor preparation (cell homogenates or recombinate receptors) from that which is unbound. The nonspecific binding component is defined as the amount of radioligand that remains following separation of the reaction mixture consisting of receptor, radioligand and an excess of unlabeled ligand. Under this condition, the only radioligand that remains represents that which is bound to components other that receptor. The specific radioligand bound is determined by subtracting the nonspecific from total radioactivity bound. For a specific example of radioligand binding assay for μ-opioid receptor, see Wang, J. B. et al. FEBS Letters 1994, 338, 217.
# as §1
# [4] = target: sodium channel (site 2); experiment: Sodium channel receptor binding (site 2); settings: sodium channel site 2 binding; read-out: Na (site 2) (IC50)
# Experimental: as §1
# Sequence of calcium channel (type N) (Q02294 whole entry): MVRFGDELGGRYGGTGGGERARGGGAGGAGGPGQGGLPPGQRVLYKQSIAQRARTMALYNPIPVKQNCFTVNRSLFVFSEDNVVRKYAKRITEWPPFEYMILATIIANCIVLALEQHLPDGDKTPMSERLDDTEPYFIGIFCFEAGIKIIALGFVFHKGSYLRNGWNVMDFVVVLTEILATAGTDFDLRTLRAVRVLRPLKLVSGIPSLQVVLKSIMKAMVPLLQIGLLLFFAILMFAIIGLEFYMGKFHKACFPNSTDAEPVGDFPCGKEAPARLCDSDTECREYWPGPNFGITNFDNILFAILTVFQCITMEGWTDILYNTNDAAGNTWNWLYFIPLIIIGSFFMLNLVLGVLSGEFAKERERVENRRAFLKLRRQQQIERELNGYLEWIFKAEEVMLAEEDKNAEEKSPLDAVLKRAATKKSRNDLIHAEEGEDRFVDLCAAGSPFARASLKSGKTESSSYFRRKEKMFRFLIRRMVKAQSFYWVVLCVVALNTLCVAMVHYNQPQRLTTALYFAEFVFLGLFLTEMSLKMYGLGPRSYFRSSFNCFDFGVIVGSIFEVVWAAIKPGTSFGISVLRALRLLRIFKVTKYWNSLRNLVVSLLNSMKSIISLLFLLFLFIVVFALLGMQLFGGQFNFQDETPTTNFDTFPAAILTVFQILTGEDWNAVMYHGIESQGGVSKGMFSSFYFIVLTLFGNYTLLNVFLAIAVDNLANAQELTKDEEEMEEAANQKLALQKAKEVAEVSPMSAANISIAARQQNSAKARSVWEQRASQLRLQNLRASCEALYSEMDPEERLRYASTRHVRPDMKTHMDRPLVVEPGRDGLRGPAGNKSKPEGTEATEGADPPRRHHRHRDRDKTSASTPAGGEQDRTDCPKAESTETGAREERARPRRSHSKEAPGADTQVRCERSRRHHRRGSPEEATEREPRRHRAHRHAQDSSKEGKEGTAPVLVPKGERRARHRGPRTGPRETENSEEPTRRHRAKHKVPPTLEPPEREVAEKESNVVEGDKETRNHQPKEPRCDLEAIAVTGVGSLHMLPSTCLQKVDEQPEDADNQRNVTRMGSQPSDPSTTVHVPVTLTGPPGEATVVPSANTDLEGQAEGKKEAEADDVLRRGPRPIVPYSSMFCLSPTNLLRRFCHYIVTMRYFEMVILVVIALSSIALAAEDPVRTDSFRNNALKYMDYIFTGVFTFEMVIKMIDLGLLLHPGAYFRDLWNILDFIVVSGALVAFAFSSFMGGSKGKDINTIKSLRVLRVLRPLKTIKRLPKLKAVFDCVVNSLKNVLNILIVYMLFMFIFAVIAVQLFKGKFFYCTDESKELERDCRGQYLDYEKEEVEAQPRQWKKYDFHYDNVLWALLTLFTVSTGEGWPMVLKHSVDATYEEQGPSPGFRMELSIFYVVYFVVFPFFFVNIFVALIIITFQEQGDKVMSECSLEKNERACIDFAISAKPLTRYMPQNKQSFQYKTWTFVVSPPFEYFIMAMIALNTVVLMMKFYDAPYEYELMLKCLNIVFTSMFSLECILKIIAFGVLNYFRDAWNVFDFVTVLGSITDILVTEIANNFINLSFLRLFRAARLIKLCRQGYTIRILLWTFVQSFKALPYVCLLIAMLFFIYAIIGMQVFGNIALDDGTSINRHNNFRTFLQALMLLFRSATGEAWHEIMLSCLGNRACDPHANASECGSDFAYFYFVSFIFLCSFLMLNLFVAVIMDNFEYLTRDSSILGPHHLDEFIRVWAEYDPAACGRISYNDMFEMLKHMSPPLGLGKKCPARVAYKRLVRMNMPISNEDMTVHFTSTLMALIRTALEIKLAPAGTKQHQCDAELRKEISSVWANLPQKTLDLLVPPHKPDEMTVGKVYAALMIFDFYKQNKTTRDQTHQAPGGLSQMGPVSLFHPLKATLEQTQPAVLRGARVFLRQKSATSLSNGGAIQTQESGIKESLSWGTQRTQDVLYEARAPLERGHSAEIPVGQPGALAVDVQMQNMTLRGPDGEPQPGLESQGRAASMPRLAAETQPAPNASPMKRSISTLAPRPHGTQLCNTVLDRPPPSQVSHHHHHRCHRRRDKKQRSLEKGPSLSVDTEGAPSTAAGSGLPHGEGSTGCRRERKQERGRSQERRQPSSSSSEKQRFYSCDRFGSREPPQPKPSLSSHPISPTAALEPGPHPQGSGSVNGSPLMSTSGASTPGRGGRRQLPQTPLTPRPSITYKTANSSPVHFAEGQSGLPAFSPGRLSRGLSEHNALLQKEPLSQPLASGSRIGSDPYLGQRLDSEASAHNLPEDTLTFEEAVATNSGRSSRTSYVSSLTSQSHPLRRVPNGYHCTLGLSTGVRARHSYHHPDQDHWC
# Sequence of calcium channel (type N) (P54287 whole entry partner): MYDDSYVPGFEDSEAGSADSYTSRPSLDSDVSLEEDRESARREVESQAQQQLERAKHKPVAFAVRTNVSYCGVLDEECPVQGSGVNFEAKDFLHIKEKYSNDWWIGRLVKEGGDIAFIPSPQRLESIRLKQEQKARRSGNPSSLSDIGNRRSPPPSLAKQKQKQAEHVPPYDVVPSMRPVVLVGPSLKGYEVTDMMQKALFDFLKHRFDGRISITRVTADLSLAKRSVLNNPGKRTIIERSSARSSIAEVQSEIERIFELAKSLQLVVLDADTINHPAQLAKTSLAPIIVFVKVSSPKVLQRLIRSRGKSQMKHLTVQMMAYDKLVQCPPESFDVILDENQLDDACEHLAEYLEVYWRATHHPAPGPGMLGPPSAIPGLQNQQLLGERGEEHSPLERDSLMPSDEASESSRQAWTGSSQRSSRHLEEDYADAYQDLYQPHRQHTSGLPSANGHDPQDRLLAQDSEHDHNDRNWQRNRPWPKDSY
# Sequence of calcium channel (type N) (P54290 25-944 partner limits assumed): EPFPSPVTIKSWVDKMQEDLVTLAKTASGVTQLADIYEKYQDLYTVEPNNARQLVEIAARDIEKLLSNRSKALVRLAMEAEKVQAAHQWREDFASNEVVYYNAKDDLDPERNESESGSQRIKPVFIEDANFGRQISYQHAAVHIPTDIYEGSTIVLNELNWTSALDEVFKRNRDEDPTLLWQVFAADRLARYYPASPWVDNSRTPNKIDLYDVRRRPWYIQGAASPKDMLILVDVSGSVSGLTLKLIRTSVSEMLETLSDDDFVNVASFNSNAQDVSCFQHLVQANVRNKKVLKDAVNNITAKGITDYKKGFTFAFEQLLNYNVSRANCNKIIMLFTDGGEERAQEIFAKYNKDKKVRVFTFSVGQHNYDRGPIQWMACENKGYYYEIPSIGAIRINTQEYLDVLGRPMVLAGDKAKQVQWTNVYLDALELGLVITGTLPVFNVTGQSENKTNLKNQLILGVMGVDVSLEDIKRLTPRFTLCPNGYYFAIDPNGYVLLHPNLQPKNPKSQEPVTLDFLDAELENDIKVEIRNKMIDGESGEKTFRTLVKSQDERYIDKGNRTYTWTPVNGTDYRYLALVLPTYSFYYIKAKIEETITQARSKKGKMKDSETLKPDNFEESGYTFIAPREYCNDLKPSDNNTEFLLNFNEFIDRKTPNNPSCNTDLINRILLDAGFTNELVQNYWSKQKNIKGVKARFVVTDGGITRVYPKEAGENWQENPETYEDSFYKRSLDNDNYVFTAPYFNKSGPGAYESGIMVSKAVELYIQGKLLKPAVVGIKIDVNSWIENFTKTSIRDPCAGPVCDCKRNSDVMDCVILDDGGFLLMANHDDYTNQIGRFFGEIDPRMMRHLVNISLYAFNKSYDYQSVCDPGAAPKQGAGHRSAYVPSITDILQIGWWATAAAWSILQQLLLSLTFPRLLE
# Sequence of calcium channel (type N) (P54290 945-1091 partner limits assumed): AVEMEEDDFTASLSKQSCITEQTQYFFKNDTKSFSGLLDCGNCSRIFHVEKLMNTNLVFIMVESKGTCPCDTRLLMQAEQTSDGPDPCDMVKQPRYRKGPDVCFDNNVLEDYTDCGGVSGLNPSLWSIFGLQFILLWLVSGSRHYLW
# Sequence of opioid (μ) receptor (P35372 whole entry): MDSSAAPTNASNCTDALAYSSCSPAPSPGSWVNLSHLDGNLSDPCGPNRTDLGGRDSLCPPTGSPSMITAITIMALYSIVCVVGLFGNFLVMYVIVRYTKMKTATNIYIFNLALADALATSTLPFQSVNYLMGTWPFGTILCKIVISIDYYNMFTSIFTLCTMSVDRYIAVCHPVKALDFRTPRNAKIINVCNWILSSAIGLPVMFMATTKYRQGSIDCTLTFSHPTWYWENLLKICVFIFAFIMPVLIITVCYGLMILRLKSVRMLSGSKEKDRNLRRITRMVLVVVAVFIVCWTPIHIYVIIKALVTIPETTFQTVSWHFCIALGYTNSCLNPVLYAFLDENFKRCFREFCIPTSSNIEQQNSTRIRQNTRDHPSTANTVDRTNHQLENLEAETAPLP
SMILES,IC50 [1],IC50 [2],IC50 [3],IC50 [4]
"CC(C)(C)C(NC(=O)Nc1cccc(C(F)(F)F)c1)C(=O)NC(CN)Cc1ccccc1 (centres unmarked) [Compound 4, N-(2-Amino-1-benzyl-ethyl)-3,3-dimethyl-2-[3-(3-trifluoromethyl-phenyl)ureido]-butyramide]",> 1000 nM,> 1000 nM,< 100 nM,< 100 nM
"CC(C)(C)[C@@H](CN[C@H](CN)Cc1ccccc1)NC(=O)Nc1cccc(C(F)(F)F)c1 [Compound 5, 1-{1-[(2-Amino-1-benzyl-ethylamino)-methyl]-2,2-dimethy-propyl}-3-(3-trifluoromethyl-phenyl)-urea]",> 1000 nM,> 1000 nM,> 1000 nM,< 100 nM
"CN(C(=O)C(NC(=O)Nc1cccc(C(F)(F)F)c1)C(C)(C)C)C1CCN(Cc2ccccc2)C1 (centres unmarked) [Compound 8, N-(1-Benzyl-pyrrolidin-3-yl)-3,3,N-trimethyl-2-[3-(3-trifluoromethyl-phenyl)-ureido]-butyramide]",> 1000 nM,> 1000 nM,> 1000 nM,< 100 nM
"CN(CC(NC(=O)Nc1cccc(C(F)(F)F)c1)C(C)(C)C)C1CCN(Cc2ccccc2)C1 (centres unmarked) [Compound 9, 1-(1-{[(1-Benzyl-pyrrolidin-3-yl)-methyl-amino]-methyl}-2,2-dimethyl-propyl)-3-(3-trifluoromethyl-phenyl)-urea]",> 1000 nM,> 1000 nM,> 1000 nM,< 100 nM
"CN(C(=O)C(NC(=O)Nc1ccc(OC(F)(F)F)cc1)C(C)(C)C)C1CCN(Cc2ccccc2)C1 (centres unmarked) [Compound 10, N-(1-Benzyl-pyrrolidin-3-yl)-3,3,N-trimethyl-2-[3-(4-trifluoromethoxy-phenyl)-ureido]-butyramide]",> 1000 nM,> 1000 nM,> 1000 nM,< 1000 nM
"CN(CC(NC(=O)Nc1ccc(OC(F)(F)F)cc1)C(C)(C)C)C1CCN(Cc2ccccc2)C1 (centres unmarked) [Compound 11, 1-(1-{[(1-Benzyl-pyrrolidin-3-yl)-methyl-amino]-methyl}-2,2-dimethyl-propyl)-3-(4-trifluoromethoxy-phenyl)-urea]",> 1000 nM,> 1000 nM,> 1000 nM,< 100 nM
"CC(C)(C)[C@H](NC(=O)Nc1cccc(C(F)(F)F)c1)C(=O)N[C@@H](Cc1ccccc1)C(=O)N1CCNCC1 [Compound 15, N-(1-Benzyl-2-oxo-2-piperazin-1-yl-ethyl)-3,3-dimethyl-2-[3-(3-trifluoromethyl-phenyl) -ureido]-butyramide]",–,> 1000 nM,> 1000 nM,> 1000 nM
"CN(C)CCN(Cc1ccccc1)C(=O)[C@@H](NC(=O)Nc1cccc(C(F)(F)F)c1)C(C)(C)C [Compound 16, N-Benzyl-N-(2-dimethylamino-ethyl)-3,3-dimethyl-2-[3-(3-trifluoromethyl-phenyl)-ureido]-butyramide]",–,> 1000 nM,> 1000 nM,< 1000 nM
"CN(C)CCN(Cc1ccccc1)C(=O)[C@@H](NC(=O)Nc1ccc(OC(F)(F)F)cc1)C(C)(C)C [Compound 17, N-Benzyl-N-(2-dimethylamino-ethyl)-3,3-dimethyl-2-[3-(4trifluoromethoxy-phenyl)-ureido]-butyramide]",–,> 1000 nM,> 1000 nM,< 100 nM
"CN(C)C[C@H](Cc1ccccc1)NC(=O)[C@@H](NC(=O)Nc1cccc(C(F)(F)F)c1)C(C)(C)C [Compound 18, N-(1-Benzyl-2-dimethylamino-ethyl)-3,3-dimethyl-2-[3-(3-trifluoromethyl-phenyl)-ureido]-butyramide]",> 1000 nM,> 1000 nM,< 100 nM,< 1000 nM
"CC(C)(C)[C@H](NC(=O)Nc1ccc(OC(F)(F)F)cc1)C(=O)N[C@H]1CCN(Cc2ccccc2)C1 [Compound 19, N-(1-Benzyl-pyrrolidin-3-yl)-3,3-dimethyl-2-[3-(4-trifluoromethoxy-phenyl)-ureido]-butyramide]",–,> 1000 nM,> 1000 nM,< 1000 nM
"CN(C)CCN(Cc1ccccc1)C(=O)[C@@H]1CCCN1C(=O)Nc1ccc(OC(F)(F)F)cc1 [Compound 22, Pyrrolidine-1,2-dicarboxylic acid 2-[benzyl-(2-dimethylamino-ethyl)-amide] 1-[(4-trifluoromethoxy-phenyl)-amide]]",–,> 1000 nM,–,< 1000 nM

# The remaining lines, values ahead:
IC50 [1],IC50 [2],IC50 [3],IC50 [4],SMILES
> 1000 nM,> 1000 nM,> 1000 nM,< 1000 nM,"CC(C)(C)[C@H](NC(=O)Nc1cccc(C(F)(F)F)c1)C(=O)N[C@@H]1CCN(Cc2ccccc2)C1 [Compound 3a, N-(1-Benzyl-pyrrolidin-3-(R)-yl)-3,3-dimethyl-2-(S)-[3-(3-trifluoromethyl-phenyl)-ureido]-butyramide]"
> 1000 nM,> 1000 nM,< 1000 nM,< 100 nM,"CC(C)(C)[C@H](NC(=O)Nc1cccc(C(F)(F)F)c1)C(=O)N[C@H]1CCN(Cc2ccccc2)C1 [Compound 3b, N-(1-Benzyl-pyrrolidin-3-(S)-yl)-3,3-dimethyl-2-(S)-[3-(3-trifluoromethyl-phenyl)-ureido]-butyramide]"
> 1000 nM,> 1000 nM,> 1000 nM,< 1000 nM,"CC(C)(C)[C@H](NC(=O)Nc1cc(F)ccc1F)C(=O)N[C@H]1CCN(Cc2ccccc2)C1 [Compound 3c, N-(1-Benzyl-pyrrolidin-3-(S)-yl)-2-(S)-[3-(2,5-difluoro-phenyl)-ureido]-3,3-dimethyl-butyramide]"
> 1000 nM,> 1000 nM,> 1000 nM,< 1000 nM,"CC(C)(C)[C@H](NC(=O)Nc1cc(F)ccc1F)C(=O)N[C@@H]1CCN(Cc2ccccc2)C1 [Compound 3d, N-(1-Benzyl-pyrrolidin-3-(R)-yl)-2-(S)-[3-(2,5-difluoro-phenyl)-ureido]-3,3-dimethyl-butyramide]"
> 1000 nM,> 1000 nM,> 1000 nM,< 100 nM,"O=C(NC1CCN(Cc2ccccc2)CC1)[C@@H]1Cc2ccccc2CN1C(=O)Nc1cccc(C(F)(F)F)c1 [Compound 3e, 3,4-Dihydro-1H-isoquinoline-2,3-dicarboxylic acid 3-(S)-[(1-benzyl-piperidin-4-yl)-amide] 2-[(3-trifluoromethyl-phenyl)-amide]]"
> 1000 nM,> 1000 nM,> 1000 nM,< 100 nM,"O=C(NC1CCN(Cc2ccccc2)CC1)[C@@H]1Cc2ccccc2CN1C(=O)Nc1ccc(OC(F)(F)F)cc1 [Compound 3f, 3,4Dihydro-1H-isoquinoline-2,3-dicarboxylic acid 3-(S)-[(1-benzyl-piperidin-4-yl)-amide] 2-[(4-trifluoromethoxy-phenyl)-amide]]"
> 1000 nM,> 1000 nM,> 1000 nM,< 100 nM,"CN(C)CCN(Cc1ccccc1)C(=O)[C@@H]1Cc2ccccc2CN1C(=O)Nc1cccc(C(F)(F)F)c1 [Compound 3g, 3,4-Dihydro-1H-isoquinoline-2,3-dicarboxylic acid 3-(S)-[benzyl-(2-dimethylamino-ethyl)-amide] 2-[(3-trifluoromethyl-phenyl)-amide]]"
> 1000 nM,> 1000 nM,> 1000 nM,< 100 nM,"CN(C)CCN(Cc1ccccc1)C(=O)[C@@H]1Cc2ccccc2CN1C(=O)Nc1ccc(OC(F)(F)F)cc1 [Compound 3h, 3,4-Dihydro-1H-isoquinoline-2,3-dicarboxylic acid 3-(S)-[benzyl-(2-dimethylamino-ethyl)-amide] 2-[(4-trifluoromethoxy-phenyl)-amide]]"
